Test results reported in PubChem BioAssay (NCI).
Where “and” joins values, the source holds several entries; their conditions need not be identical. Equal values may be shown once.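 96-well plates; 48 h exposure; 5 concentrations. Endpoints by linear interpolation between flanking doses. Not reached: highest tested concentration assigned. GI50 = concentration required for 50% inhibition of growth. The concentration for full growth arrest is given as TGI.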

Experiments:
Experiment in all cases: NCI tumour cell line growth inhibition, 48 h
RXF 393 renal = tested on: RXF 393 renal
SK-MEL-5 melanoma = tested on: SK-MEL-5 melanoma
EKVX NSCLC = tested on: EKVX NSCLC
NCI-H23 lung = tested on: NCI-H23 lung
MALME-3M melanoma = tested on: MALME-3M melanoma
HCC-2998 colon = tested on: HCC-2998 colon
OVCAR-3 ovarian = tested on: OVCAR-3 ovarian
A549 NSCLC = tested on: A549 NSCLC
OVCAR-4 ovarian = tested on: OVCAR-4 ovarian

Compound	TGI (RXF 393 renal)	TGI (SK-MEL-5 melanoma)	TGI (EKVX NSCLC) [µM]	TGI (NCI-H23 lung)	TGI (MALME-3M melanoma)	TGI (HCC-2998 colon) [µM]	TGI (OVCAR-3 ovarian)	TGI (A549 NSCLC)	TGI (OVCAR-4 ovarian)	GI50 (RXF 393 renal) [µM]	GI50 (NCI-H23 lung) [µM]	GI50 (MALME-3M melanoma) [µM]	GI50 (HCC-2998 colon) [µM]	GI50 (SK-MEL-5 melanoma) [µM]	GI50 (EKVX NSCLC) [µM]
COc1ccccc1OCC(COC(=O)Nc1ccc(C)cc1)OC(=O)Nc1ccc(C)cc1 (configuration not stated)	20.2 µM	47.7 µM	65.8	63.7 µM	48.3 µM	35.3	33.9 µM	> 100 µM							
OCC1CC2CC1C1(C2)OCCO1 (configuration not stated)	> 100 µM	> 100 µM	> 100	> 100 µM	> 100 µM		> 100 µM	> 100 µM	> 100 µM						
C=C1C(=O)C23C(CC(OC(C)=O)C1[C@@H]2OC(C)=O)C1(C)C(OC(C)=O)CCC(C)(C)C1C[C@@H]3OC(C)=O (some centres not stated)	0.831 µM	3.33 µM	5.38		3.01 µM	3.24	3.03 µM	3.05 µM	3.41 µM						
O=C(O)c1oc2ccc([N+](=O)[O-])c3c2c1CCC3	> 100 µM		> 100	> 100 µM	> 100 µM	> 100	> 100 µM	> 100 µM	> 100 µM						
C[P+](C)(CC(F)(F)F)c1ccccc1	> 100 µM	> 100 µM	> 100	> 100 µM	> 100 µM	> 100	> 100 µM	> 100 µM							
C[Si](C)(C)[C@@]1([Se]c2ccccc2)CC[C@@H]1C(=O)c1ccccc1	> 100 µM	37.4 µM	> 100	> 100 µM	> 100 µM	> 100	> 100 µM	> 100 µM	> 100 µM						
COc1ccc(-c2nc(N)nc(-c3cc(C)ccc3O)c2Cl)cc1	99.7 µM		> 100	> 100 µM	> 100 µM	> 100	89.8 µM	> 100 µM	53.3 µM						
COc1ccc2c(c1)[n+]([O-])c(-c1ccc(Cl)c(Cl)c1)c(N)[n+]2[O-]		31.5 µM	> 100	30.9 µM	58.5 µM		68 µM	> 100 µM	> 100 µM						
Cc1nc(Nc2ccc([N+](=O)[O-])cc2)sc1C(=O)/C=C/c1ccc(N(C)C)cc1	> 100 µM	> 100 µM	> 100	> 100 µM	> 100 µM	> 100	> 100 µM	> 100 µM							
O=C(O)CNS(=O)(=O)c1ccc(NC(=O)c2cccc([N+](=O)[O-])c2)cc1	> 100 µM	> 100 µM	> 100	> 100 µM	> 100 µM	> 100	> 100 µM	> 100 µM	> 100 µM						
Cc1ccc(S(=O)(=O)ON=C2CC(c3ccccc3)N(C)C(c3ccccc3)C2)cc1 (configuration not stated)	48 µM and 71.6 µM	32.5 µM and 31.8 µM	> 100	62.9 µM and 47.8 µM	78.1 µM and 66.4 µM	32.3	47.8 µM and 49.4 µM	63.1 µM and 55.1 µM	38.4 µM and 40.3 µM						
C/C(=N\NC(=S)Nc1ccc([N+](=O)[O-])cc1S(=O)(=O)O)c1ccccn1	86.1 µM	> 100 µM	> 100	> 100 µM	> 100 µM	> 100	72.7 µM	> 100 µM	95.3 µM						
CN(C)/C(=N/C(=O)Nc1ccccc1)SCc1ccccc1	> 100 µM	> 100 µM	> 100	> 100 µM	> 100 µM	> 100	> 100 µM	> 100 µM	> 100 µM						
N#CCc1nc2c(s1)C(=O)c1ccccc1C2=O	49.4 µM	23.7 µM	49.1	36.4 µM	34.3 µM	38	29.3 µM		31.1 µM						
O=C(O)C1C2CC3CC2CC31 (configuration not stated)	> 100 µM	> 100 µM	> 100	> 100 µM	> 100 µM		> 100 µM	> 100 µM	> 100 µM						
COc1cc(C(N)=O)c(OC)c(OC)c1OC	> 100 µM	> 100 µM	> 100	> 100 µM		> 100	> 100 µM	> 100 µM	> 100 µM						
O=C1CCCc2c(O)ccc(O)c21	> 100 µM	> 100 µM	> 100	> 100 µM	> 100 µM	> 100	> 100 µM	> 100 µM	> 100 µM						
O=C1C=Cc2noc3cccc1c23	5.67 µM	24.2 µM	10.2	26 µM	25.7 µM	28.6	10.9 µM	38.7 µM	4.82 µM						
NC(=O)c1ccc(NC(=O)c2oc3ccccc3c2-c2cnn(-c3ccccc3)c2)cc1	6.03 µM			> 100 µM	> 100 µM	> 100				1.33	6	> 100	> 100		

Compound	TGI (RXF 393 renal)	TGI (SK-MEL-5 melanoma)	TGI (EKVX NSCLC) [µM]	TGI (NCI-H23 lung)	TGI (MALME-3M melanoma)	TGI (HCC-2998 colon) [µM]	TGI (OVCAR-3 ovarian)	TGI (A549 NSCLC)	TGI (OVCAR-4 ovarian)	GI50 (RXF 393 renal) [µM]	GI50 (NCI-H23 lung) [µM]	GI50 (MALME-3M melanoma) [µM]	GI50 (HCC-2998 colon) [µM]	GI50 (SK-MEL-5 melanoma) [µM]	GI50 (EKVX NSCLC) [µM]
O=[N+]([O-])C(=C(c1ccccc1)c1ccccc1)[N+](=O)[O-]	6.71 µM			52.8 µM		24	35.5 µM	51.3 µM	28.6 µM						
Clc1cccc(C2SCc3nc4ccccc4n32)c1Cl (configuration not stated)	29.6 µM	27.3 µM	30.8	32.1 µM			33.7 µM	41.9 µM	27 µM						
Cc1ccc(C)c(NC(=O)CCc2n[nH]c(=S)o2)c1	> 100 µM	> 100 µM	> 100	> 100 µM	> 100 µM	> 100	> 100 µM	> 100 µM	> 100 µM						
COS(=O)CCOC(=O)c1ccccc1SSc1ccccc1C(=O)OCCS(=O)OC (configuration not stated)	28 µM	> 100 µM	> 100	44.4 µM	63.7 µM		54.5 µM	> 100 µM	34.9 µM						
c1ccc(CN(Cc2ccccn2)Cn2cccn2)nc1	> 100 µM	> 100 µM	> 100	> 100 µM			> 100 µM	> 100 µM	> 100 µM						
CC1=CC(=O)c2[nH]c3ccccc3c2C1=O	6.74 µM	7.66 µM	8.48	7.28 µM	8.54 µM	24	8.02 µM	> 25 µM	7.58 µM	3.47	3.69	4.85	7.01	4.22	4.04
N#CC(/C(=N\NC(N)=S)C(=O)NC1C2CC3CC(C2)CC1C3)c1ccc(Cl)cc1 (configuration not stated)	> 100 µM	> 100 µM	> 100	> 100 µM	> 100 µM	> 100	> 100 µM	> 100 µM	> 100 µM						
CC(C)c1cc2c(O)c(c1)Cc1cc(C(C)C)cc(c1O)Cc1cc(C(C)C)cc(c1O)Cc1cc(C(C)C)cc(c1O)Cc1cc(C(C)C)cc(c1O)Cc1cc(C(C)C)cc(c1O)C2	> 100 µM	> 100 µM	> 100	> 100 µM	> 100 µM	> 100	> 100 µM	> 100 µM	> 100 µM						
CC(C)S(=O)(=O)n1c(N)nc2ccc(/C(=N/O)c3ccccc3)cc21	45.5 µM		59.1	60.8 µM	> 100 µM	53.2	50.6 µM	49.3 µM	> 100 µM						
C/C(=N\N=C(N)N)c1sc(-c2nc(C)c(/C(C)=N/N=C(N)N)s2)nc1C	> 95.3 µM	> 100 µM	> 100	> 100 µM	> 100 µM	> 100	> 100 µM	> 100 µM	> 100 µM						
C(=C1/CCCCC([n+]2ccccc2)=N1)/c1ccccc1	> 100 µM		> 100	> 100 µM	> 100 µM	> 100	> 100 µM	> 100 µM	> 100 µM						
CCCCCCCCSC(SCCCCCCCC)=C1C(=O)N(c2ccccc2)N=C1C	> 100 µM	> 100 µM	> 100	95.1 µM	> 100 µM	> 100	> 100 µM	> 100 µM							
S=C1OC2C3C4CC5C3C(O1)C1C5C4C21 (configuration not stated)	> 100 µM	> 100 µM	> 100		> 100 µM	> 100	> 100 µM	> 100 µM	> 100 µM						
CCCC/C(C)=N/NC(N)=S	> 100 µM	> 100 µM	> 100	> 100 µM	> 100 µM	> 100	> 100 µM	> 100 µM							
OCC(O)C(OC1OC(CO)C(O)C(O)C1O)c1nn(-c2ccc(F)cc2)c2nc3cc(Cl)c(Cl)cc3cc12 (configuration not stated)	> 100 µM		> 100	> 100 µM	> 100 µM	> 100	> 100 µM		> 100 µM						
Cc1ccc(C)c2sc3cc(=O)ccc-3nc12		31 µM	> 100	> 100 µM		> 100	> 100 µM	> 100 µM	48.1 µM						
COc1ccc(/C=C/CO)cc1OC	> 100 µM	> 100 µM	> 100	> 100 µM	> 100 µM	> 100	> 100 µM	> 100 µM							
CC1=C[C@H]2C[C@@]3(C)O[C@@H]([C@]4(C)CC[C@H]([C@@H](C)C(=O)O)OO4)CC3C(C)(C)[C@H]2CC1 (some centres not stated)	2.53 µM		3.67	3.55 µM	2.22 µM	2.28	3.29 µM	3.62 µM	2.9 µM						
